In ChEMBL document CHEMBL1126379, “Pyrrole analogues of the pyrrolidinone moiety of the potassium channel activator cromakalim as relaxants of guinea pig trachealis” (Bioorg Med Chem Lett, 1992):

Assays:
[1] = species: Cavia porcellus; assay: Relaxant activity expressed as in vitro inhibition of tone in guinea pig trachealis; type: functional
[2] = species: Cavia porcellus; assay: Inhibition of tone in guinea pig trachealis; type: functional

SMILES	IC50 [1] [nM]	Intrinsic activity [2]
CC(=O)c1cccn1C1=CC(C)(C)Oc2ccc(C#N)cc21	> 20000	0.22
CCc1cccn1C1=CC(C)(C)Oc2ccc(C#N)cc21	> 20000	0.32
CC1(C)Oc2ccc(C#N)cc2C2=C1OC(c1ccccc1)c1cccn12 (stereo not drawn)	> 2000	0.21
CC1(C)Oc2ccc(C#N)cc2[C@@H](n2cccc2C(=O)C(F)(F)F)[C@@H]1O	> 20000	0.28
CC1(C)Oc2ccc(C#N)cc2[C@@H](n2cccc2)[C@@H]1O	> 20000	0.19
CC1(C)Oc2ccc(C#N)cc2[C@H]2n3cccc3CO[C@]21O	10400	0.85
CC1(C)Oc2ccc(C#N)cc2[C@@H](N2CCCC2=O)[C@@H]1O [CROMAKALIM]	–	0.89

Further compounds by falling IC50 [1], results first:

IC50 [1] [nM]	SMILES	Intrinsic activity [2]
4080	CC1(C)C=C(n2cccc2)c2cc(C#N)ccc2O1	0.78
2900	CC(=O)N[C@@H]1c2cc(C#N)ccc2OC(C)(C)[C@H]1O	0.78
2400	CC1(C)C=C(n2ccc(C#N)c2)c2cc(C#N)ccc2O1	0.89
1370	CC1OC2=C(c3cc(C#N)ccc3OC2(C)C)n2cccc21 (stereo not drawn)	0.8
1230	C/C(=C\C#N)N[C@@H]1c2cc(C#N)ccc2OC(C)(C)[C@H]1O	0.96
1020	CC1(C)C=C(n2ccc([N+](=O)[O-])c2)c2cc(C#N)ccc2O1	0.79
690	CC1(C)C=C(n2cccc2C(=O)C(F)(F)F)c2cc(C#N)ccc2O1	0.91
690	CC1(C)C=C(n2cccc2[N+](=O)[O-])c2cc(C#N)ccc2O1	0.88
370	CC1(C)Oc2ccc(C#N)cc2[C@@H](n2cccc2[N+](=O)[O-])[C@@H]1O	0.88
80	CC1(C)Oc2ccc(C#N)cc2[C@H]2n3cccc3[C@@H](C(F)(F)F)O[C@]21O	0.96
